As to `CC(=O)N1CCc2nc(Nc3nc(-c4ccccc4)cs3)nc(-c3ccccc3)c2C1`, the melting point was 130 to 132 °C.
`O=C(Oc1ccc(-c2cc3ccccc3[nH]2)cc1)c1ccccc1` gave a melting point of 220 °C.
As for `CC(Cc1c[nH]c2ccccc12)NC(=O)NCC1CCC(c2ccccc2)(N(C)C)CC1` (configuration not stated), the figure is 140 to 146 °C; as for `CC1(C2CCCC2)Cc2cc(OC3=C(O)C(=O)NC3=O)c(Cl)c(Cl)c2C1=O` (configuration not stated), 181 to 183 °C; as for `COc1ccccc1CNc1ccc2cc(Nc3nc(C)no3)ccc2n1`, 175 °C.
In the case of `COc1ccc(C=CC(=O)c2cccc(O)c2)cc1`, the melting point lay in the range of 93 to 94 °C.
As for `COc1ccc2c(c1)sc1nc(C(O)C3CC3)cn12` (configuration not stated), the figure is 151 to 153 °C; as for `CCc1cn2c(N)c(Cl)cc(C(=O)NCC3CCN(CCc4ccc(C(C)(C)C)cc4)CC3)c2n1`, 220 °C; as for `O=C(O)c1cncn1C(c1ccccc1)c1ccccc1`, 216 °C.
As to `O=C(O)CCNC(=O)NCCCN1CCN(c2ccccc2)CC1`, the melting point is 169 to 171 °C.
In the case of `COc1ccc(-c2ccccc2NC(=N)N(C)C)cc1` it was 130 to 131 °C; in that of `CN1CCC(n2ccc(-c3ccc(F)cc3)c2-c2ccncc2)CC1`, 187 to 189 °C.
The compound `CN(C)c1nc(N(C)C)c2ncn(Cc3ccccc3F)c2n1` had a melting point of 127 °C.
In the case of `NS(=O)(=O)c1ccc(-c2cc(-c3nc(-c4ccc(C(F)(F)F)nc4)cc(C(F)(F)F)n3)ccn2)s1` it was 262 °C; in that of `CCOC(=O)C1=C(COCCn2c(C)nc(C)c2C)NC2=C(C(=O)OC2)C1c1ccccc1Cl` (configuration not stated), 215 to 217 °C; in that of `CCOC(=O)C(C(=O)OCC)c1ccc([N+](=O)[O-])cn1`, 91.5 to 93.5 °C.
In the case of `CSc1nc(P(=O)(C2CCCCC2)C2CCCCC2)cc(P(=O)(C2CCCCC2)C2CCCCC2)n1` it was 197 to 198 °C; in that of `N=C(N)c1ccc(-n2cnn(-c3ccc(CCC(=O)O)cc3)c2=O)cc1`, 313 to 316 °C; in that of `COC(=O)[C@H](Cc1ccc(NC(=S)NCCc2ccccc2)cc1)NC(=O)[C@@H]1CCCN1S(=O)(=O)c1ccc(C)cc1`, 76 to 81 °C.
In the case of `CC(C)C(NC(=O)OCc1ccccc1)C(=O)NC(Cc1ccccc1)C(O)C(O)C(Cc1ccccc1)NC(=O)C(NC(=O)OCc1ccccc1)C(C)C` (configuration not stated) it was 231 to 232 °C; in that of `CC(C)C(=O)CC(=O)c1ccc(C(=O)c2ccccc2)cc1`, 76.5 to 78 °C.
For the compound `O=c1cc(-c2ccccc2)cc[nH]1`, the melting point was 226 to 230 °C.
Turning to `CCOC(Cc1ccc(OCCN(C)c2nc3ccccc3o2)cc1)c1nc(C)no1` (configuration not stated), the melting point fell in the range of 61 to 62 °C.
As for `CN(Cc1cc(C(F)(F)F)cc(C(F)(F)F)c1)C(=O)c1c(-c2ccc(F)cc2)c2c(c(=O)n1C)CCCN2C`, the figure is 230 to 232 °C.
For the compound `NNC(=O)c1cccc(OCc2csc(-c3ccccc3F)n2)c1`, the melting point fell in the range of 143 to 145 °C.
As for `COC(=O)C=Cc1ccc(OCCc2nc(-c3ccccc3)oc2C)cc1`, the figure is 114 to 115 °C.
As for `COc1cccn2c(=O)c(CCN3CCC(c4noc5cc(F)ccc45)CC3)c(C)nc12`, the figure is 209 °C.
As for `CCCCNC(=O)Nc1ccccc1C(=O)NC1CCN(C(c2ccccc2)c2ccccc2)CC1`, the figure is 204 to 206 °C.
`COC(=O)c1ccccc1S(=O)(=O)NCC#N`: the melting point came to 110 °C.
In the case of `Cn1c2c(ccc1=O)C(NCCc1ccc([N+](=O)[O-])cc1)CCC2` (configuration not stated) it was 138 to 139 °C; in that of `CC(C)COc1ccccc1OCCOS(C)(=O)=O`, 59 to 61 °C; in that of `COc1ccc(C(=O)N2CCCC2=O)cc1`, 120 °C.
Take `CS(=O)c1nc(-c2ccc([N+](=O)[O-])cc2)c[nH]1` (configuration not stated): the melting point fell in the range of 220 to 222 °C.
In the case of `COc1cc(C(C)C)c2c(c1)S(=O)(=O)N(COC(=O)c1cccs1)C2=O` it was 139 to 141 °C; in that of `O=C(O)CCC(=NO)c1ccc(-c2ccccc2F)cc1`, 150 to 152 °C; in that of `CC(C)CC(NC(=O)c1ccc(Cl)cc1)NC(=NC#N)Nc1cccnc1` (configuration not stated), 193 to 194 °C.
`CCCCCCCCCCNc1nc(NCC(O)C2CC(C)(C)NC(C)(C)C2)nc(NCC(O)C2CC(C)(C)NC(C)(C)C2)n1` (configuration not stated) displayed a melting point of 106 to 107 °C.
As to `CC1(C)SC2C(NC(=O)Nc3ccccc3)C(=O)N2C1c1nnn[nH]1` (configuration not stated), the melting point is 110 to 120 °C.
In the case of `CS(=O)(=O)N(CCc1ccc(Cl)cc1)Cc1ccncc1` it was 96 to 99 °C.
Take `COc1ccc(NC(N)=S)nc1`: the melting point fell in the range of 131 to 135 °C.
In the case of `O=C1NC(=O)C(CCCOc2ccc(F)cc2)S1` (configuration not stated) it was 119 to 121 °C; in that of `N[C@H](Cc1cccc(C(=O)c2ccccc2)c1)C(=O)O`, 230 to 231 °C; in that of `CN(C)Cc1ccc(CSCCNC2=NS(=O)(=O)C(S(C)(=O)=O)=C2N)o1`, 187 to 189 °C.
In the case of `O=C(Nc1ccccc1)[NH+]([O-])Cc1ccncc1` (configuration not stated) it was 174 °C; in that of `COc1cc(CCC(=O)c2c(O)cc(O)c(CCC(C)C)c2O)cc(OC)c1O`, 166 to 167 °C; in that of `Cn1cc(C2=C(c3cn(CCCN)c4ccccc34)C(=O)NC2=O)c2ccccc21`, 195 to 197 °C.
In the case of `c1cnc(NCCN2CCC(=C3c4sccc4CCn4ccnc43)CC2)nc1` it was 173 °C.
Compound `Cc1cc(F)ccc1-c1nc(NC(C)(CO)CO)nc2c1ccc(=O)n2-c1c(F)cccc1F` returned a melting point of 158 to 160 °C.
In the case of `CC1(C)OC[C@@H](CNc2c([N+](=O)[O-])cnc3cc(Br)ccc23)O1` it was 136 to 137 °C; in that of `COC(=O)NC1CN(C(=O)c2cc(OC)c(OC)c(OC)c2)CCN1C(=O)C1=Cc2cc(OC)c(OC)cc2CCC1` (configuration not stated), 143 to 145 °C.
As for `CO[C@@H]1[C@@H](OC)[C@H](C)O[C@@H](OC(=S)Nc2ccc(-c3nccn3-c3ccc(OC(F)(F)F)cc3)cc2)[C@@H]1OC`, the figure is 129 °C; as for `NC1=NN(c2cccc(Cl)c2)C(c2ccccc2)C1` (configuration not stated), 164 to 165 °C; as for `Cc1cc(Cl)ccc1NC(=O)NC(=O)C(Cl)CCl` (configuration not stated), 111 to 113 °C.
As for `CCOC(=O)C(C)(Sc1nc2ccc(OCC)cc2s1)c1ccccc1` (configuration not stated), the figure is 92 to 94 °C.
Take `O=C1CCC(c2ccc(F)c(F)c2)CC1`: the melting point is 61 °C.
As for `Clc1ccccc1-c1cnc(-c2ccccc2Cl)nc1`, the figure is 112 °C; as for `Cc1ccc(Sc2nc(C(N)=O)nc3c(C)csc23)cc1`, 243 to 246 °C; as for `O=C(Oc1c(Br)c(Br)c(Br)c(Br)c1Br)c1ccccc1CCl`, 201 to 205 °C.
In the case of `COCCn1nc2c(N)nc3ncccc3c2c1CC(C)(C)C(N)=O` it was 254 to 257 °C; in that of `Cc1ccc(NC(=O)N2CC(Oc3cccc(C(F)(F)F)c3)C2)cc1`, 191 to 192 °C; in that of `COc1ccc2nc(Cl)c(OC)nc2c1`, 79 to 81 °C.
In the case of `CC(C)(C)c1ccc(C2(C(N)=O)CC2)cc1` it was 178 to 180 °C.
